This experiment addresses T1, malate dehydrogenase (Mdh3) (Cryptococcus neoformans, UniProt J9VXN5).
T1 construct: gene CNAG_03225; Mdh3-MBP fusion protein expressed in S. cerevisiae
T1 sequence (J9VXN5 1-338): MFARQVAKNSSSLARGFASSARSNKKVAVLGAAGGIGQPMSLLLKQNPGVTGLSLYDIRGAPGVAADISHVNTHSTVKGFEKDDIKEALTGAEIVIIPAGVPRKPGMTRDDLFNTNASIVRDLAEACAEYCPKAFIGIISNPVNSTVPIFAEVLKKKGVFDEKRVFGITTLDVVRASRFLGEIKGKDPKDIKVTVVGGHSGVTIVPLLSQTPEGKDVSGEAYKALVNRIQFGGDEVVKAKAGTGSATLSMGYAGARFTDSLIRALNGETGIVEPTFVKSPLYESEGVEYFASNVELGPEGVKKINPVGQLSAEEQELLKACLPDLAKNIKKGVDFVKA
In words: steady-state enzyme kinetics with recombinant Mdh3-MBP, NAD turnover at […] nm, with or without […] bithionol. Type of experiment: biochemical.

The structures appear in SMILES notation.

In the case of `Oc1c(Cl)cc(Cl)cc1Sc1cc(Cl)cc(Cl)c1O` [bithionol], the Ki was found to be 3 µM.

(Values after paper PMC4981720, “Identification of Multiple Cryptococcal Fungicidal Drug Targets by Combined Gene Dosing and Drug Affinity Responsive Target Stability Screening” (mBio, 2016).)
